Columns and labels:
ATF6 [1] = target: T1, ATF6 (Homo sapiens, UniProt P18850); assay: ERSE ATF6-luciferase assay in presence of Tg-induced ER stress (U2-OS ATF6 TRE-luciferase reporter cells); assay type: cell-based; settings: in presence of ER stress (thapsigargin), Tg only = 100%, Table 2-3; for activity at 1 µM / activity at 10 µM: U2OS, 8 h; for activity at 1 µM / ATF6 activity @ 1 μM [%]: 1 μM test compound; for activity at 10 µM / ATF6 activity @ 10 μM [%]: 10 μM test compound; for ATF6 activity @ 1 μM [%] / ATF6 activity @ 10 μM [%]: 8 hr
T1 construct: endogenous in cells; host or cells: U2-OS (ATCC HTB-96) stably transduced with the Cignal Lenti ATF6 luc reporter (Qiagen #CLS-6031L)
T1 sequence (P18850 1-670): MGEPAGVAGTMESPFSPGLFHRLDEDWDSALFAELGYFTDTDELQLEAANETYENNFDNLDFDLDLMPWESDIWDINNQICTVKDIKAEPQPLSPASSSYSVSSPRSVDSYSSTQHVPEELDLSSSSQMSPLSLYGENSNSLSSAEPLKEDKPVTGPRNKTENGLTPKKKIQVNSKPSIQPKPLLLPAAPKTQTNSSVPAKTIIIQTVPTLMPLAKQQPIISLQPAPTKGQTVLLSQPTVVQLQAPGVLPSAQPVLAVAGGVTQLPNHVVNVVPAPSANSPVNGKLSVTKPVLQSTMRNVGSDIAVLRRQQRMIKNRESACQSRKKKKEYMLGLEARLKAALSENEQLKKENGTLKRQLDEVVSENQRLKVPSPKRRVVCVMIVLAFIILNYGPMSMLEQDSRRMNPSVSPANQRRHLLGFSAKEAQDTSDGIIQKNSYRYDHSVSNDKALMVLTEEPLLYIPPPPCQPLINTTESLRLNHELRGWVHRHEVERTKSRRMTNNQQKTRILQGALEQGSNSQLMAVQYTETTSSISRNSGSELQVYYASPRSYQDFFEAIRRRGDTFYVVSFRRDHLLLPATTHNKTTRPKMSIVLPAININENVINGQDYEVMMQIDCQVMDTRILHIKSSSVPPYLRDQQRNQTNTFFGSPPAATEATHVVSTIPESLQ
Procedure: (§1) To understand how exemplary compounds of the invention modulate the activity of ATF6 in absence or presence of endoplasmic reticulum (ER) stress, a Human bone osteosarcoma (U2-OS)-based TRE-luciferase reporter stable cell line was generated to determine the modulation of transcription of ATF6 target genes.
(§2) U2-OS cells were obtained from the American Type Culture Collection (ATCC HTB-96, ATCC Manassas, VA) and were cultured with growing medium containing Dulbecco's Modified Eagle's Medium (DMEM) (Cat. No.: SH30023.02, HyClone) supplemented with fetal bovine serum (FBS) 10% (Cat. No.: 16000044, Gibco) and 1% penicillin-streptomycin antibiotic cocktail (Cat. No.: SV30010, Hyclone).
(§3) Cignal Lenti ATF6 luc reporter (Qiagen #CLS-6031L) was used to produce a stable cell line in U2-OS cells (U2-OS ATF6 TRE-luciferase reporter). The lenti ATF6 reporter is a preparation of replication incompetent, VSV-g pseudotyped lentivirus particles expressing the firefly luciferase gene under the control of a minimal (m)CMV promoter and tandem repeats of the ATF6 transcriptional response element (TRE). The number of response elements as well as the intervening sequence between response elements has been experimentally optimized to maximize the signal to noise ratio.
(§4) Exemplary compounds of the invention and reference compounds were prepared from powder as 10 mM stock solutions in dimethyl sulfoxide (DMSO; Cat. No. #D2650, Sigma Aldrich) and stored at −80° C. in presence of N2 neutral atmosphere.
(§5) For the primary screening, 40,000 U2-OS ATF6 TRE-luciferase reporter cells were plated in poly-D-lysine (Cat. No.: P2636, Sigma) pre-coated white 96-well plates (Thermo Scientific Nunc #136101) with 100 μL of growing medium. Cells were incubated in humidified chambers for 24 hr.
For testing exemplary compounds in presence of ER-stress, cells were pre-treated for 30 min with 50 μL growing medium containing either vehicle (DMSO), 1 or 10 μM test compound. After this pre-incubation, 50 μL of a solution containing 0.2 μM of the ER stress-inducer thapsigargin (Tg) was added to the appropriate wells. The Tg solution also contains vehicle or test compounds at 1 or 10 μM as indicated. The final concentration of DMSO in each well was kept at 0.3%. Plates were incubated for 8 hr in humidified chambers.
After the 8 hr incubation, plates were cooled down to room temperature for 10 min prior to the luciferase assays. Luciferase reactions were performed using Luciferase Assay System (Cat. No.: E4550, Promega). Briefly, each well was washed with 100 μl of PBS 1× and, then, 20 μl of lysis reagent was added into each well. Plates were shaken for 10 min and, then, 50 μl of Luciferase Assay Reagent was added to each well. Luminescence was determined by integration of 1 s with a gain of 110 in a Synergy 4 Microplate reader. All measurements were carried out in triplicate.
The average activity determined from the wells containing vehicle only (DMSO, 0% of ATF6 activity) was used as blank and subtracted from the rest of measurements. The average activity determined from the wells containing Tg only was used as 100% of ATF6 activity. The percentage of modulation of exemplary compounds was calculated by normalizing values to potential maximal activation with Tg.
ATF6 activities of exemplary compounds at 1 and 10 μM in presence Tg-induced ER stress tested in the U2-OS ATF6 TRE-luciferase reporter cells were determined and are shown in Table 2-2 and Table 3-2.

ATF6 [2] = target: T1, ATF6; assay: ERSE ATF6-luciferase assay in absence of ER stress (U2-OS ATF6 TRE-luciferase reporter cells); assay type: cell-based; settings: in absence of ER stress (no Tg), normalized to maximal activation with Tg; for activation at 1 µM / activation at 10 µM: U2OS, 8 h; for activation at 1 µM / ATF6 activity @ 1 μM-No Tg [%]: 1 μM test compound; for activation at 1 µM: Table 3-3, read-out: ATF6 activity @ 1 μM-No Tg [%]; for activation at 10 µM / ATF6 activity @ 10 μM - No Tg [%]: 10 μM test compound; for activation at 10 µM: Table 3-3, read-out: ATF6 activity @ 10 μM - No Tg [%]; for ATF6 activity @ 10 μM - No Tg [%] / ATF6 activity @ 1 μM-No Tg [%]: 8 hr, Table 3-3
Procedure: as §1, §2, §3, §4, §5
For testing exemplary compounds in absence of ER-stress, cells were treated for 8 hr with 100 μL growing medium containing either vehicle (DMSO), 1 or 10 μM test compound or 0.1 μM Tg. The final concentration of DMSO in each well was kept at 0.3%. Plates were incubated in humidified chambers.
After 8 hr of incubation, plates were cooled down to room temperature for 10 min prior to luciferase assays. Luciferase reactions were performed as above. Luminescence was read by integration of 1 s with a gain of 110 in a Synergy 4 Microplate reader. All measurements were carried out in triplicate.
The average activity determined from the wells containing vehicle only (DMSO, 0% of ATF6 activity) was used as blank and subtracted from the rest of measurements. The percentage of modulation of exemplary compound was calculated by normalizing values to potential maximal activation with Tg.
ATF6 activities of exemplary compounds at 1 and 10 μM in absence of Tg-induced ER stress in the U2-OS ATF6 TRE-luciferase reporter cells were determined and are shown in Table 3-2, and Table 3-3.

SMILES | activity at 1 µM (ATF6 [1]) [%] | activity at 10 µM (ATF6 [1]) [%] | activation at 1 µM (ATF6 [2]) [%] | activation at 10 µM (ATF6 [2]) [%] | ATF6 activity @ 1 μM [%] (ATF6 [1]) | ATF6 activity @ 10 μM - No Tg [%] (ATF6 [2]) | ATF6 activity @ 10 μM [%] (ATF6 [1]) | ATF6 activity @ 1 μM-No Tg [%] (ATF6 [2])
O=C(Nc1cnn(CC2CCCC2)c1)c1cc(-c2ccco2)on1 [Compound 3-2, N-(1-(cyclopentylmethyl)-1H-pyrazol-4-yl)-5-(furan-2-yl)isoxazole-3-carboxamide] | > 150 | > 150 | 0 to 25 | 0 to 25 |  |  |  | 
O=C(Nc1cnn(C2CNC2)c1)c1cc(-c2ccco2)on1 [Compound 3-3, N-(1-(azetidin-3-yl)-1H-pyrazol-4-yl)-5-(furan-2-yl)isoxazole-3-carboxamide] | 125 to 150 |  | 0 to 25 |  |  |  |  | 
O=C(Nc1cnn(C2CCNC2)c1)c1cc(-c2ccco2)on1 (centres unmarked) [Compound 3-4, 5-(furan-2-yl)-N-(1-(pyrrolidin-3-yl)-1H-pyrazol-4-yl)isoxazole-3-carboxamide] | 125 to 150 | > 150 | 0 to 25 | 0 to 25 |  |  |  | 
CC(C1CCCC1)n1cc(NC(=O)c2cc(-c3ccco3)on2)cn1 (centres unmarked) [Compound 3-5, N-(1-(1-cyclopentylethyl)-1H-pyrazol-4-yl)-5-(furan-2-yl)isoxazole-3-carboxamide] | 125 to 150 | > 150 | 0 to 25 | 0 to 25 |  |  |  | 
O=C(Nc1cnn(Cc2c(Cl)cncc2Cl)c1)c1cc(-c2ccco2)on1 [Compound 3-6, N-(1-((3,5-dichloropyridin-4-yl)methyl)-1H-pyrazol-4-yl)-5-(furan-2-yl)isoxazole-3-carboxamide] | 100 to 125 | 125 to 150 | 0 to 25 | 0 to 25 |  |  |  | 
O=C(Nc1cnn(C2CCOC2)c1)c1cc(-c2cccs2)on1 (centres unmarked) [Compound 3-19, N-(1-(tetrahydrofuran-3-yl)-1H-pyrazol-4-yl)-5-(thiophen-2-yl)isoxazole-3-carboxamide] | > 150 | > 150 | 0 to 25 | 25 to 50 |  |  |  | 
CC(C1CCOC1)n1cc(NC(=O)c2cc(-c3ccco3)on2)cn1 (centres unmarked) [Compound 3-24, 5-(furan-2-yl)-N-(1-(1-(tetrahydrofuran-3-yl)ethyl)-1H-pyrazol-4-yl)isoxazole-3-carboxamide] |  | > 150 | 0 to 25 |  | + (+ refers to 100% < % activity < 125% at 1 or 10 μM) | ++ (++ refers to 25% < % activity < 50% at 1 or 10 μM test compound) |  | 
CC(C1CCOC1)n1cc(NC(=O)c2cc(-c3ccco3)on2)cn1 (centres unmarked) [Compound 3-25, 5-(furan-2-yl)-N-(1-(1-(tetrahydrofuran-3-yl)ethyl)-1H-pyrazol-4-yl)isoxazole-3-carboxamide] |  |  |  |  | + (+ refers to 100% < % activity < 125% at 1 or 10 μM) | + (+ refers to 0% < % activity < 25% at 1 or 10 μM test compound) | +++ (+++ refers to >150% at 1 or 10 μM test compound) | + (+ refers to 0% < % activity < 25% at 1 or 10 μM test compound)
CC(C1CCOC1)n1cc(NC(=O)c2cc(-c3ccco3)on2)cn1 (centres unmarked) [Compound 3-26, 5-(furan-2-yl)-N-(1-(1-(tetrahydrofuran-3-yl)ethyl)-1H-pyrazol-4-yl)isoxazole-3-carboxamide] |  |  |  |  | +++ (+++ refers to >150% at 1 or 10 μM test compound) | +++ (+++ refers to % activity >50 % at 1 or 10 μM test compound) | +++ (+++ refers to >150% at 1 or 10 μM test compound) | + (+ refers to 0% < % activity < 25% at 1 or 10 μM test compound)
CC(C1CCOC1)n1cc(NC(=O)c2cc(-c3ccco3)on2)cn1 (centres unmarked) [Compound 3-27, 5-(furan-2-yl)-N-(1-(1-(tetrahydrofuran-3-yl)ethyl)-1H-pyrazol-4-yl)isoxazole-3-carboxamide] |  |  |  |  | + (+ refers to 100% < % activity < 125% at 1 or 10 μM) | ++ (++ refers to 25% < % activity < 50% at 1 or 10 μM test compound) | +++ (+++ refers to >150% at 1 or 10 μM test compound) | + (+ refers to 0% < % activity < 25% at 1 or 10 μM test compound)
